According to patent US9274109B2, “Gut flora-derived extracellular vesicles, and method for searching for a disease model, vaccine, and candidate drug and for diagnosis using the same” (AEON MEDIX INC., priority 2009, dated 2016):
Counter-ions that a name gives are not always drawn. Like-named read-outs stand apart in the source and are kept apart here.

What was measured:
[1] = tested on: mouse peritoneal macrophages; experiment: Ex vivo IL-6 release from mouse peritoneal macrophages with E. coli-derived extracellular vesicles; type: cell-based; conditions: 10 μM prodrug
Protocol: FIG. 41 is a graph showing IL-6 levels obtained by treating mouse peritoneal macrophages with 10 μM prodrugs in the presence of E. coli-derived extracellular vesicles (EC_EV)

[2] = tested on: mouse macrophages (RAW 264.7); experiment: In vitro screening: extracellular vesicle-induced IL-6 secretion from macrophages; type: cell-based; conditions: for activity at 10 µM: Mus musculus, RAW 264.7, vesicles 100 ng/ml
[3] = tested on: mouse macrophages (RAW 264.7); experiment: as above; type: cell-based; conditions: RAW264.7, 15 h, read-out: level of IL-6 as percentage of the positive control (kinase inhibitors)
Protocol: FIG. 35 is a schematic diagram showing the discovery of substances inhibitory of the gut flora-derived extracellular vesicles-induced release of IL-6. The mouse macrophages (RAW 264.7) were treated for 15 hours with the gut flora-derived extracellular vesicles (100 ng/ml) alone, separated by the method of Example 3, or in combination with a drug candidate (10 μM), in a 37° C. incubator. The culture media was collected and centrifuged at 4° C., 500×g for 10 min and then at 4° C., 3000×g for 20 min. IL-6 in the supernatant was quantitatively analyzed by ELISA. These processes account, at least in part, for a method for in vitro screening drug candidates inhibitory of the gut flora-derived extracellular vesicle-induced secretion of IL-6, by which drug candidates preventive or therapeutic of gut flora-derived extracellular vesicles-caused diseases can be provided.
According to the method established in Example 12, mouse macrophages (RAW 264.7) were treated with neither extracellular vesicles nor any drug candidate (negative control), with E. coli-derived extracellular vesicles (0.1 μg/ml) alone (positive control) or with the extracellular vesicles (0.1 μg/ml) in combination with 10 μM of one selected from among 80 different kinase inhibitors ((kinase inhibitor library, BIOMOL No. 2832: PD-98059, U-0126, SB-203580, H-7, H-9, AG-494, AG-825, Lavendustin A, RG-14620, Tytphostin 23, Tytphostin 25, Tytphostin 46, Tytphostin 47, Tytphostin 51, Tytphostin 1, Tytphostin 9, Tytphostin AG 1288, Tytphostin AG 1478, Tytphostin AG 1295, HNMPA, Damnacanthal, Piceatannol, AG-490, AG-126, AG-370, AG-879, LY 294002, Wortmannin, GF 109203X, Hypericin, Sphingosine, H-89, H-8, HA-1004, HA-1077, HDBA, KN-62, KN-93, ML-7, ML-9, 2-Aminopurine, N9-Isopropyl-olomoucine, Olomoucine, iso-olomoucine, Roscovitine, LFM-A13, SB-202190, ZM 336372, SU 4312, AG-1296, Rottlerin, Genistein, Daiazein, Erbstatin analog, Quercetin dehydrate, SU 1498, ZM 449829, DRB (5,6-Dichloro-1-b-D-ribofuranosylbenzimidazole), HBDDE (2,2′,3,3′,4,4′-Hexahydroxy-1,1′-biphenyl-6,6′-dimethanol dimethyl ether), Indirubin, Indirubin-3′-monoxime, Y-27632, Kenpaullone, Terreic acid, BML-257, BML-259, Apigenin, BML-265 (Erlotinib analog), Rapamycin). After 15 hours of treatment, IL-6 was quantitatively analyzed by ELISA.

C57BL/6 mice = experiment: In vivo serum IL-6 in extracellular vesicle-induced sepsis mouse model; conditions: 10 mg/kg i.p.; vesicles 5 μg i.p.; 6 hours; ELISA
Protocol: In vivo assay was performed to examine whether the prodrugs discovered in Example 15 exert anti-inflammatory effects in the body. To this end, the sepsis mouse models that were established by the intraperitoneal injection of 5 μg of E. coli-derived extracellular vesicles into C57BL/6 mice (male, 6 weeks old, 4 mice in each group) as in Example 6 was intraperitoneally injected with Haloperidol and Doxepein at a dose of 10 mg/kg, each. Sera were taken 6 hours later.

[4] = tested on: mouse macrophages (RAW 264.7); experiment: IL-6 secretion from macrophages treated with extracellular vesicles from small intestinal fluid; type: cell-based; conditions: RAW 264.7, ELISA, versus vesicles alone
Text: Extracellular vesicles were separated from small intestinal fluids of normal mice and DSS-induced mouse model of […]. To this end, mice were operated on to excise the small intestine. The peyer's patch and liquid were removed from the excised small intestine which was then cut at regular lengths of about 5 cm. The intestinal pieces were transversely cut and washed with physiological saline to remove impurities therefrom. They were again cut into pieces with dimensions of 1 cm×1 cm and vortexed five times for five sec per time in 30 mL of physiological saline. After the removal of intestinal tissues and impurities by centrifugation, the supernatant was ultra-centrifuged to separate extracellular vesicles.
FIGS. 3 and 4 show the secretion of the inflammatory cytokine IL-6 in mouse macrophages (RAW 264.7) treated with various concentrations of the extracellular vesicles separated from the small intestinal fluids of normal mice and DSS-induced mouse models of IBD.
FIG. 5 provides the results after an experiment was done to see whether the exracellular vesicles from the DSS-induced mouse model of IBD contained those derived from Gram-negative bacteria.

[5] = RAW264.7, 15 h, read-out: IL-6 level as percentage of the positive control (prodrugs)

| Compound | IL-6 release from mouse peritoneal macrophages [1] | activity at 10 µM [2, 5] [%] | activity at 10 µM [3] [%] | also measured |
| --- | --- | --- | --- | --- |
| CN(C)CCC=C1c2ccccc2CCc2ccccc21 [Amitriptyline] | inhibitory effect | < 80 |  |  |
| O=c1cc(-c2ccc(O)cc2)oc2cc(O)cc(O)c12 [Apigenin, 5,7-dihydroxy-2-(4-hydroxyphenyl)chromen-4-one] |  |  | < 50 |  |
| CC(C)c1cnc(NC(=O)Cc2ccccc2)s1 [BML-259, N-(5-Isopropylthiazol-2-yl)phenylacetamide] |  |  | < 50 |  |
| CN(C)CCC=C1c2ccccc2C=Cc2ccccc21 [Cyclobenzaprine] | inhibitory effect | < 80 |  |  |
| OC[C@H]1O[C@H](n2cnc3cc(Cl)c(Cl)cc32)[C@@H](O)[C@H]1O [DRB, (2S,3S,4R,5R)-2-(5,6-dichlorobenzimidazol-1-yl)-5-(hydroxymethyl)oxolane-3,4-diol] |  |  | < 50 |  |
| CNCCCN1c2ccccc2CCc2ccccc21 [Desipramine] | inhibitory effect | < 80 |  |  |
| CN(C)CCC=C1c2ccccc2COc2ccccc21 [Doxepin] | inhibitory effect | < 80 |  | serum IL-6 level (C57BL/6 mice): effectively suppressed |
| Cl.Cl.OCCN1CCN(CCCN2c3ccccc3Sc3ccc(C(F)(F)F)cc32)CC1 [Fluphenazine dichloride] | inhibitory effect |  |  |  |
| CN(C)CCCn1cc(C2=C(c3c[nH]c4ccccc34)C(=O)NC2=O)c2ccccc21 [GF109203X, 3-[1-[3-(dimethylamino)propyl]indol-3-yl]-4-(1H-indol-3-yl)pyrrole-2,5-dione] |  |  | < 50 |  |
| CC1CNCCN1S(=O)(=O)c1cccc2cnccc12 (centres unmarked) [H-7, 5-(2-methylpiperazin-1-yl)sulfonylisoquinoline dihydrochloride] |  |  | < 50 |  |
| O=C(CCCN1CCC(O)(c2ccc(Cl)cc2)CC1)c1ccc(F)cc1 [Haloperidol] | inhibitory effect | < 80 |  | serum IL-6 level (C57BL/6 mice): effectively suppressed |
| CN(C)CCCN1c2ccccc2CCc2ccccc21 [Imipramine] | inhibitory effect | < 80 |  |  |
| O=C1N=c2ccccc2=C1c1[nH]c2ccccc2c1NO [Indirubin-3′monoxime, 3-[3-(hydroxyamino)-1H-indol-2-yl]indol-2-one] |  |  | < 50 |  |
| O=C1Cc2c([nH]c3ccc(Br)cc23)-c2ccccc2N1 [Kenpaullone, 9-bromo-7,12-dihydro-5H-indolo[3,2-d][1]benzazepin-6-one] |  |  | < 50 |  |
| O=c1cc(N2CCOCC2)oc2c(-c3ccccc3)cccc12 [LY294002, 2-morpholin-4-yl-8-phenylchromen-4-one] |  |  | < 50 |  |
| O=S(=O)(c1cccc2c(I)cccc12)N1CCCNCC1 [ML-7, 1-(5-iodonaphthalen-1-yl)sulfonyl-1,4-diazepane hydrochloride] |  |  | < 50 |  |
| O=S(=O)(c1cccc2c(Cl)cccc12)N1CCCNCC1 [ML-9, 1-(5-chloronaphthalen-1-yl)sulfonyl-1,4-diazepane hydrochloride] |  |  | < 50 |  |
| CNCCCC12CCC(c3ccccc31)c1ccccc12 [Maprotiline] | inhibitory effect | < 80 |  |  |
| Cc1ccccc1C(OCCN(C)C)c1ccccc1 (centres unmarked) [Orphenadrine] | inhibitory effect | < 80 |  |  |
| COc1ccc2c(c1)c(OC(C)C)c(C(N)=O)[s+]2[O-] (centres unmarked) [PD-144795, 5-methoxy-3-(1-methylethoxy)benzo(b)thiophene-2-carboxamide-1-oxide] |  |  |  | IL-6 secretion at graded concentrations ([2]; 0.1, 1, 5, 10 μM, vesicles 100 ng/ml): inhibits IL-6 secretion in a dose-dependent manner; activity at 10 µM ([2]; RAW264.7, 10 μM, read-out: IL-6 level as percentage of the positive control (phosphatase inhibitors)): < 50% |
| CC(C)(C)c1ccc(C(O)CCCN2CCC(C(O)(c3ccccc3)c3ccccc3)CC2)cc1 (centres unmarked) [Terfenadine] | inhibitory effect | < 80 |  |  |
| Cc1c(Cl)cccc1Nc1ccccc1C(=O)O [Tolfenamic acid] | inhibitory effect | < 80 |  |  |
| O=c1n(CCCN2CCN(c3cccc(Cl)c3)CC2)nc2ccccn12 [Trazodone] | inhibitory effect | < 80 |  |  |
| NS(=O)(=O)c1cc2c(cc1Cl)NC(C(Cl)Cl)NS2(=O)=O (centres unmarked) [Trichlormethiazide] |  | < 80 |  |  |
| COc1ccc(CCN(C)CCCC(C#N)(c2ccc(OC)c(OC)c2)C(C)C)cc1OC (centres unmarked) [Verapamil] |  | < 80 |  |  |
| C=CC(=O)c1ccc2ccccc2c1 [ZM449829, 1-(2-Naphthalenyl)-2-propen-1-one] |  |  | < 50 |  |
| polymyxin B |  |  |  | secretion of IL-6 induced by extracellular vesicles from DSS-induced IBD mice, in combination with polymyxin B [4]: decreased |
